Earlier results as cited in patent US20050288338A1, “Amido compounds and their use as pharmaceuticals” (priority 2004, published 2005).

Target: T1, 11βHSD1 in the eye (Homo sapiens, UniProt P28845)
T1 construct: host or cells: eye of healthy human volunteers (in vivo)
Details: healthy volunteers, after seven days of carbenoxolone treatment

T1 sequence (P28845 whole entry): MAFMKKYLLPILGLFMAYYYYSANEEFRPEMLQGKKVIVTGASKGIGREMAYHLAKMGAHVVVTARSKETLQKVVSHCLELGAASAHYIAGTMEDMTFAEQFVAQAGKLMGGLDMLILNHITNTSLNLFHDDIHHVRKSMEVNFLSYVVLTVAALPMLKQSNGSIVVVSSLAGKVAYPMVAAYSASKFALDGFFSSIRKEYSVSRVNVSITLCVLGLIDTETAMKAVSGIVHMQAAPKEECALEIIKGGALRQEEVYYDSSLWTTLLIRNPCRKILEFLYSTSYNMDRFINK

IOP was reduced by: 18%
SMILES: CC1(C)[C@@H](OC(=O)CCC(=O)O)CC[C@]2(C)[C@H]3C(=O)C=C4[C@@H]5C[C@@](C)(C(=O)O)CC[C@]5(C)CC[C@@]4(C)[C@]3(C)CC[C@@H]12 [carbenoxolone]
